We go through 22 compounds from patent US20100022640A1, “ESTERS OF 2-[…] AND ANTIFUNGAL COMPOSITIONS CONTAINING THEM” (priority 2006, published 2010).

Holding throughout (format): cell-based
Assay [1] has as its system Trichophyton metagrophytes. Nature of the assay: Fungistatic endpoint in inoculated culture medium, T. metagrophytes. As to conditions: lowest concentration preventing visible growth, Bushnell-Haas medium with dextrose 10 g/L and yeast extract 0.1 g/L, pH 7.0; for MIC: Trichophyton, read-out: Fungistatic Endpoint (ppm Range) T. metagrophytes. Here is the method: (§1) The microorganisms involved in these tests were Aspergillis niger, Candida albicans, Trichophyton metagrophytes, and Pichia pastoris. The various esters tested are listed in the following table together with their fungistatic endpoints.
(§2) Fungistatic endpoints were determined by combining the compounds at several dosage levels in a culture medium which had been freshly inoculated with spores of the test organisms. Five mL aliquots were placed in sterile culture tubes. The test compounds dissolved in the appropriate solvent were added to obtain the desired concentration of the compound in the culture medium. Following incubation at suitable conditions, the presence of growth was determined visually at each concentration of the biocide. The lowest concentration of the compound preventing growth was taken as the fungistatic endpoint. Controls containing the solvent alone at the highest dosage were made to insure that no microbial inhibition was produced by the solvent.
(§3) The culture media used in these tests was the Bushnell-Haas medium from Difco. Dextrose at 10 g/L and yeast extract at 0.1 g/L were added to obtain growth of the test organisms. The dilute solution of the Bushnell Haas media which was used in these tests contains: 0.20 g/L magnesium sulfate; 0.02 g/L calcium chloride; 1.00 g/L monopotassium phosphate; 1.00 g/L dipotassium phosphate; 1.00 g/L ammonium nitrate, and 0.05 g/L ferric chloride. The final pH of the media was 7.0±0.2 at 25° C.

The next assay deals with Candida albicans. Kind of assay: Fungistatic endpoint in inoculated culture medium, Candida albicans. Particulars: lowest concentration preventing visible growth, Bushnell-Haas medium with dextrose 10 g/L and yeast extract 0.1 g/L, pH 7.0; for MIC: Candida albicans, read-out: Fungistatic Endpoint (ppm Range) Candida albicans. As to the method:
as §1, §2, §3

A further assay has as its system Pichia pastoris. Kind of assay: Fungistatic endpoint in inoculated culture medium, Pichia pastoris. As to conditions: lowest concentration preventing visible growth, Bushnell-Haas medium with dextrose 10 g/L and yeast extract 0.1 g/L, pH 7.0; for MIC: Komagataella pastoris, read-out: Fungistatic Endpoint (ppm Range) Pichia. pastoris. Here is the method:
as §1, §2, §3

Another assay concerns Aspergillis niger. Nature of the assay: Fungistatic endpoint in inoculated culture medium, Aspergillis niger. Particulars: lowest concentration preventing visible growth, Bushnell-Haas medium with dextrose 10 g/L and yeast extract 0.1 g/L, pH 7.0; for MIC: read-out: Fungistatic Endpoint (ppm Range) Aspergillis niger. Here is the method:
as §1, §2, §3

Molecules are shown by their SMILES. ≈ marks a conversion by molar mass, not a printed value. Bounds are passed on as bounds.

As for `CC(=O)OCC(C#N)c1cc(OC(F)F)ccc1Cl` (stereo not drawn) [Example 5, 3-acetoxy-2-(2-chloro-5-(difluoromethoxy)phenyl)propanenitrile], the MIC (in assay [1]; in the assay with Candida albicans) was less than 16 µg/mL throughout.

With `CC(=O)OCC(C#N)c1cc(Cl)ccc1Cl` (stereo not drawn) [Example 6, 3-acetoxy-2-(2,5-dichlorophenyl)propanenitrile], the MIC (in assay [1]; with Candida albicans) was less than 16 µg/mL each time.

For `CC(=O)OCC(C#N)c1cc(Cl)ccc1OC(F)F` (stereo not drawn) [Example 7, 3-acetoxy-2-(5-chloro-2-(difluoromethoxy)phenyl)propanenitrile], the MIC (in assay [1]; in the assay on Candida albicans; in the assay with Pichia pastoris) was 32 µg/mL (≈ 110 µM) throughout.

Consider `CC(=O)OCC(C#N)c1ccc(Cl)cc1Cl` (stereo not drawn) [Example 8, 3-acetoxy-2-(2,4-dichlorophenyl)propanenitrile], for which the values for the MIC (in assay [1]; with Candida albicans; in the assay on Pichia pastoris) were 16 to 32 µg/mL (≈ 62 to 124 µM), 16 µg/mL (≈ 62 µM) and less than 16 µg/mL, respectively.

Turning to `CC(=O)OCC(C#N)c1ccccc1C(F)(F)F` (stereo not drawn) [Example 10, 3-acetoxy-2-(2-(trifluoromethyl)phenyl)propanenitrile], the MIC is more than 64 µg/mL in assay [1], more than 64 µg/mL in the assay with Candida albicans, 128 to 256 µg/mL (≈ 498 to 995 µM) in the assay with Aspergillis niger and more than 64 µg/mL in the assay with Pichia pastoris.

As to `CC(=O)OCC(C#N)c1ccc(Cl)cc1C` (stereo not drawn) [Example 12, 3-acetoxy-2-(4-chloro-2-methylphenyl)propanenitrile], the MIC in assay [1] was more than 64 µg/mL; in the assay with Candida albicans, more than 64 µg/mL; in the assay with Aspergillis niger, 64 to 128 µg/mL (≈ 269 to 539 µM); in the assay on Pichia pastoris it was more than 64 µg/mL.

Take `CC(=O)OCC(C#N)c1ccccc1Cl` (stereo not drawn) [Example 14, 3-acetoxy-2-(2-chlorophenyl)propanenitrile]: the results for the MIC (in assay [1]; in the assay with Candida albicans; in the assay with Pichia pastoris) were 32 µg/mL (≈ 143 µM), 16 µg/mL (≈ 71.5 µM) and 16 µg/mL (≈ 71.5 µM), respectively.

With `CC(=O)OCC(C#N)c1ccc(Cl)cc1` (stereo not drawn) [Example 16, 3-acetoxy-2-(4chlorophenyl)propanenitrile], the MIC (in assay [1]; in the assay on Candida albicans; with Pichia pastoris) was less than 16 µg/mL in each case.

Take `CC(=O)OC(C)C(C#N)c1ccc(Cl)cc1` (stereo not drawn) [Example 19, 3-acetoxy-2-(4-chlorophenyl)butanenitrile]: the MIC in assay [1] was 32 to 64 µg/mL (≈ 135 to 269 µM); in the assay on Candida albicans, 16 to 32 µg/mL (≈ 67.3 to 135 µM); in the assay with Pichia pastoris, 16 µg/mL (≈ 67.3 µM).

`COCC(OC(C)=O)C(C#N)c1ccc(Cl)cc1` (stereo not drawn) [Example 20, 3-acetoxy-2-(4-chlorophenyl)-4-methoxybutanenitrile]: in the assay on Aspergillis niger, the MIC fell in the range of 64 to 128 µg/mL (≈ 239 to 478 µM).

Take `CC(=O)OCC(C#N)c1ccc(C)cc1` (stereo not drawn) [Example 21, 3-acetoxy-2-(4-methylphenyl)propanenitrile]: the MIC in the assay with Aspergillis niger turned out to be 64 µg/mL (≈ 315 µM).

`CC(=O)OC(C)C(C#N)c1ccc(C)cc1` (stereo not drawn) [Example 22, 3-acetoxy-2-(4-methylphenyl)butanenitrile]: the MIC with Aspergillis niger was 128 to 256 µg/mL (≈ 589 to 1180 µM).

Turning to `COCC(OC(C)=O)C(C#N)c1ccc(C)cc1` (stereo not drawn) [Example 23, 3-acetoxy-2-(4-methylphenyl)-4methoxybutanenitride], the “Fungistatic Endpoint (ppm Range) Aspergillis niger” value in the assay with Aspergillis niger is on record as 128-256 ppm.

Turning to `COc1ccc(C(C#N)COC(C)=O)cc1` (stereo not drawn) [Example 24, 3-acetoxy-2-(4-methoxyphenyl)propanenitrile], the MIC with Aspergillis niger was 128 µg/mL (≈ 584 µM).

On to `COc1ccc(C(C#N)C(C)OC(C)=O)cc1` (stereo not drawn) [Example 25, 3-acetoxy-2-(4-methoxyphenyl)butanentrile], for which, in the assay on Aspergillis niger, the “Fungistatic Endpoint (ppm Range) Aspergillis niger” value was 128-256 ppm.

`COCC(OC(C)=O)C(C#N)c1ccc(OC)cc1` (stereo not drawn) [Example 26, 3-acetoxy-2-(4-methoxyphenyl)-4-methoxybutanenitrile]: the MIC in the assay with Aspergillis niger fell in the range of 128 to 256 µg/mL (≈ 486 to 972 µM).

As for `CCOC(=O)C(OC(C)=O)C(C#N)c1ccc(Cl)cc1` (stereo not drawn) [Example 28, ethyl 2-acetoxy-3-(4-chlorophenyl)-3-cyanopropanoate], in the assay on Aspergillis niger, the MIC was determined as 128 µg/mL (≈ 433 µM).

Take `N#CC(COC=O)c1cc(OC(F)F)ccc1Cl` (stereo not drawn) [Example 29, 2-(2-chloro-5-(difluoromethoxy)phenyl)-3-(formyloxy)propanenitrile]: the MIC (in assay [1]; with Candida albicans; in the assay with Aspergillis niger) was less than 16 µg/mL in each case.

In the case of `N#CC(COC=O)c1cc(Cl)ccc1Cl` (stereo not drawn) [Example 30, 2-(2,5-dichlorophenyl)-3-(formyloxy)propanenitrile], the MIC (in assay [1]; with Candida albicans; with Aspergillis niger) was less than 16 µg/mL each time.

In the case of `N#CC(COC(=O)Cc1ccccc1)c1cc(OC(F)F)ccc1Cl` (stereo not drawn) [Example 31], the “Fungistatic Endpoint (ppm Range) T. metagrophytes” value in assay [1] is listed as less than 16 ppm. In the assay with Candida albicans, the “Fungistatic Endpoint (ppm Range) Candida albicans” value is more than 64 ppm. Further, in the assay on Pichia pastoris, the “Fungistatic Endpoint (ppm Range) Pichia. pastoris” value was determined as 64 ppm.

`CC(=O)OCC(C#N)c1ccccc1` (stereo not drawn) [Example 32, 3-acetoxy-2-phenylpropanenitrile]: the MIC is 16 µg/mL (≈ 84.6 µM) in assay [1], more than 64 µg/mL in the assay with Candida albicans and 16 to 32 µg/mL (≈ 84.6 to 169 µM) in the assay with Pichia pastoris.

As for `CC(=O)OCC(C#N)c1cccc(Oc2ccccc2)c1` (stereo not drawn) [Example 33], in the assay on Aspergillis niger, the “Fungistatic Endpoint (ppm Range) Aspergillis niger” value is listed as 128-256 ppm.
